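Following 48 hours of exposure in 96-well plates, responses at five concentrations were used to interpolate endpoints linearly. TGI: total growth inhibition.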
Key:
Experiment in all cases: growth of human tumour cells (NCI), 48 h
[1] = tested on: COLO 205 colon
[2] = tested on: IGROV1 ovarian
[3] = tested on: LOX IMVI melanoma
[4] = tested on: RPMI-8226 leukemia
[5] = tested on: A549 NSCLC
[6] = tested on: MALME-3M melanoma
[7] = tested on: SK-MEL-5 melanoma
[8] = tested on: HCC-2998 colon
[9] = tested on: SNB-75 CNS
[10] = tested on: DMS 114 small cell lung
[11] = tested on: RXF-631 renal
[12] = tested on: CCRF-CEM leukemia
[13] = tested on: KM20L2 colon
[14] = tested on: HCT-116 colon
[15] = tested on: SNB-78 CNS
[16] = tested on: OVCAR-4 ovarian
[17] = tested on: SW-620 colon
[18] = tested on: SNB-19 CNS
[19] = tested on: SF-268 CNS
[20] = tested on: UO-31 renal
[21] = tested on: DMS 273 small cell lung
[22] = tested on: SN12C renal
[23] = tested on: M19-MEL melanoma
[24] = tested on: HOP-62 NSCLC
[25] = tested on: RXF 393 renal
[26] = tested on: SK-OV-3 ovarian
[27] = tested on: UACC-62 melanoma
[28] = tested on: CAKI-1 renal
[29] = tested on: ACHN renal
[30] = tested on: SF-295 CNS
[31] = tested on: MOLT-4 leukemia
[32] = tested on: A498 renal
[33] = tested on: UACC-257 melanoma
[34] = tested on: K-562 leukemia
[35] = tested on: KM12 colon
[36] = tested on: U251 CNS
[37] = tested on: SK-MEL-2 melanoma
[38] = tested on: 786-0 renal
[39] = tested on: NCI-H522 lung
[40] = tested on: NCI-H460 lung
[41] = tested on: OVCAR-8 ovarian
[42] = tested on: LXFL 529 NSCLC
[43] = tested on: NCI-H226 lung
[44] = tested on: SK-MEL-28 melanoma
[45] = tested on: HT29 colon
[46] = tested on: M14 melanoma
[47] = tested on: HOP-18 NSCLC
[48] = tested on: DLD-1 colon
[49] = tested on: HL-60(TB) leukemia
[50] = tested on: EKVX NSCLC
[51] = tested on: OVCAR-3 ovarian
[52] = tested on: SF-539 CNS
[53] = tested on: HCT-15 colon
[54] = tested on: HOP-92 NSCLC
[55] = tested on: TK-10 renal
[56] = tested on: OVCAR-5 ovarian
[57] = tested on: NCI-H23 lung

Compound: O=C(NCCCCCCCCCCCCNC(=O)c1cnc2ccccc2n1)c1cnc2ccccc2n1
- TGI [1]: > 100 µM
- TGI [2]: > 100 µM
- TGI [3]: > 100 µM
- TGI [4]: > 100 µM
- TGI [5]: > 100 µM
- TGI [6]: > 100 µM
- TGI [7]: > 100 µM
- TGI [8]: > 100 µM
- TGI [9]: 49.3 µM
- TGI [10]: > 100 µM
- TGI [11]: > 100 µM
- TGI [12]: > 100 µM
- TGI [13]: > 100 µM
- TGI [14]: > 100 µM
- TGI [15]: > 100 µM
- TGI [16]: 29.8 µM
- TGI [17]: > 100 µM
- TGI [18]: 47.7 µM
- TGI [19]: > 100 µM
- TGI [20]: 86.1 µM
- TGI [21]: > 100 µM
- TGI [22]: > 100 µM
- TGI [23]: > 100 µM
- TGI [24]: > 100 µM
- TGI [25]: 88.6 µM
- TGI [26]: 55.5 µM
- TGI [27]: > 100 µM
- TGI [28]: > 100 µM
- TGI [29]: > 100 µM
- TGI [30]: > 100 µM
- TGI [31]: > 100 µM
- TGI [32]: > 100 µM
- TGI [33]: > 100 µM
- TGI [34]: > 100 µM
- TGI [35]: > 100 µM
- TGI [36]: > 100 µM
- TGI [37]: > 100 µM
- TGI [38]: > 100 µM
- TGI [39]: > 100 µM
- TGI [40]: > 100 µM
- TGI [41]: > 100 µM
- TGI [42]: > 100 µM
- TGI [43]: > 100 µM
- TGI [44]: > 100 µM
- TGI [45]: > 100 µM
- TGI [46]: > 100 µM
- TGI [47]: 79.4 µM
- TGI [48]: > 100 µM
- TGI [49]: > 100 µM
- TGI [50]: > 100 µM
- TGI [51]: > 100 µM
- TGI [52]: 36.8 µM
- TGI [53]: > 100 µM

Compound: O=C1NC(=O)C(C(=O)C(=O)Nc2cc(Cl)ccc2Cl)C(=O)N1
- TGI [1]: > 100 µM
- TGI [2]: > 100 µM
- TGI [54]: > 100 µM
- TGI [4]: > 100 µM
- TGI [5]: > 100 µM
- TGI [6]: > 100 µM
- TGI [7]: > 100 µM
- TGI [8]: > 100 µM
- TGI [9]: > 100 µM
- TGI [10]: > 100 µM
- TGI [11]: > 100 µM
- TGI [12]: > 100 µM
- TGI [13]: > 100 µM
- TGI [14]: > 100 µM
- TGI [15]: > 100 µM
- TGI [16]: > 100 µM
- TGI [17]: > 100 µM
- TGI [18]: > 100 µM
- TGI [19]: > 100 µM
- TGI [20]: > 100 µM
- TGI [23]: > 100 µM
- TGI [24]: > 100 µM
- TGI [25]: > 100 µM
- TGI [55]: > 100 µM
- TGI [26]: > 100 µM
- TGI [27]: > 100 µM
- TGI [29]: > 100 µM
- TGI [30]: > 100 µM
- TGI [31]: > 100 µM
- TGI [32]: > 100 µM
- TGI [33]: > 100 µM
- TGI [34]: > 100 µM
- TGI [35]: > 100 µM
- TGI [36]: > 100 µM
- TGI [56]: > 100 µM
- TGI [37]: > 100 µM
- TGI [38]: > 100 µM
- TGI [39]: > 100 µM
- TGI [40]: > 100 µM
- TGI [41]: > 100 µM
- TGI [42]: > 100 µM
- TGI [44]: > 100 µM
- TGI [46]: > 100 µM
- TGI [48]: > 100 µM
- TGI [57]: > 100 µM
- TGI [49]: > 100 µM
- TGI [50]: > 100 µM
- TGI [51]: > 100 µM
- TGI [52]: > 100 µM
- TGI [53]: > 100 µM

Source: PubChem BioAssay (NCI)
